{
  "source": "patent US6660299B2",
  "about": "“Modified release pharmaceutical formulation comprising amoxycillin” (Beecham Pharmaceuticals Limited, priority 1999, dated 2003)",
  "origin": "cited, not measured here",
  "conditions": "in vivo",
  "data": [
    {"smiles": "CC1(C)S[C@@H]2[C@H](NC(=O)[C@H](N)c3ccc(O)cc3)C(=O)N2[C@H]1C(=O)O", "note": "[amoxycillin]", "values": [
      {"measurement": "excretion half-life", "result": 1.3, "unit": "h"}
    ]}
  ]
}
